Source: patent publication US11413261B2, “Pharmaceutical composition for treating cancer comprising lactate metal salt” (METIMEDI PHARMACEUTICALS CO., LTD, priority 2014, dated 2022)

How the values were obtained:
[1] = system: human breast cancer cell line (MCF-7) showing a resistance to Trastuzumab; assay: Colony-forming ability, Trastuzumab in combination with calcium lactate (6-well plates); assay type: cell-based; settings: Trastuzumab-resistant MCF-7; 2.5 mM calcium lactate alone; vs control
Source text: Then, the colony-forming abilities of the cells were compared. In this case, a human breast cancer cell line (MCF-7) untreated with any drug was used as a control group (FIGS. 54a and 54b).

[2] = system: β-catenin; assay: β-catenin mRNA (RT-PCR) and protein (Western blot) expression in colorectal cancer cell lines; assay type: cell-based, human; settings: HCT-116, HT-29, DLD-1
Experimental: Human colorectal cancer cell lines (HCT-116, HT-29, and DLD-1) were cultured by the same method as that of Example 2-1 except that they were treated with 0 mM, 1.5 mM, or 2.5 mM calcium lactate, and the cultured cancer cells were obtained. Then, expression levels of […] depending on the concentration of calcium lactate were compared at the expression levels of mRNA and protein included therein.
Firstly, in order to compare mRNA expression levels, the total RNA was extracted from each of the cancer cells using an RNeasy mini kit and cDNA was synthesized using a reverse transcriptase. The gene of β-catenin was obtained through reverse transcriptase PCR using the synthesized cDNA as a template and the primers described below.
Then, in order to compare protein expression levels, each of the cancer cells was disrupted and electrophoresis was performed thereto. Then, a Western blot using anti-β-catenin antibody as a primary antibody and an anti-rabbit IgG conjugate as a secondary antibody was conducted (lower part of FIG. 5) and the blots were analyzed with the Image-J program. In this case, actin was used as internal control groups.

[3] = system: PARP; assay: PARP protein expression in breast cancer cell lines (Western blot); assay type: cell-based, human
Experimental: Human breast cancer cell lines (MCF-7 and MDA-MB-231) were cultured by the same method as that of Example 2-1 except that they were treated with 0 mM, 2.5 mM, or 5.0 mM calcium lactate, and the cultured cancer cells were obtained. Then, changes in expression level depending on the concentration of calcium lactate was analyzed at the protein expression levels of PARP included therein (FIG. 8). In this case, the change in expression level was analyzed through a Western blot using the Image-J program with anti-PARP antibody as a primary antibody and anti-rabbit IgG conjugate as a secondary antibody, and GAPDH was used as internal control groups.

[4] = system: colorectal cancer cell (HT-29); assay: Tumor volume and morphology in HT-29 implanted animal model; assay type: in vivo, Balb/c mice
Experimental: (§1) A colorectal cancer cell (HT-29) cultured in an RPMI1640 medium and then diluted with PBS was subcutaneously implanted into the flank of Balb/c mice. The mice were bred until the colorectal cancer cell grew to about 5 mm. Then, four groups were set up; a control group untreated with calcium lactate for 30 days, an experimental group 1 (peroral, P.O.) administered with 2.5 mM calcium lactate by oral administration, an experimental group 2 (intra tumor, I.T) injected with 2.5 mM calcium lactate around tumor, and an experimental group 3 (subcutaneous, S.C) subcutaneously injected with 25 mM calcium lactate (FIG. 27).
The volumes of colorectal cancer tissues extracted from the mice of the control group or the experimental group 1 set up in Example 10-1 were measured over time and compared with each other (FIG. 30).
The volumes of colorectal cancer tissues extracted from the mice of the control group or the experimental group 2 set up in Example 10-1 were measured over time and compared with each other (FIG. 32).
The tumor morphologies of the mice of the control group or the experimental group 2 set up in Example 10-1 were compared with each other (FIG. 33).
The volumes of colorectal cancer tissues extracted from the mice of the control group or the experimental group 3 set up in Example 10-1 were measured over time and compared with each other (FIG. 34).
The tumor morphologies of the mice of the control group or the experimental group 3 set up in Example 10-1 were compared with each other (FIG. 35).

[5] = system: PARP; assay: PARP protein expression in melanoma cell lines; assay type: cell-based, human; settings: SKMEL-02 and SKMEL-28; with increasing concentration (0-10 mM), 12 hours
Experimental: Each of human melanoma cell lines (SKMEL-02 and SKMEL-28) cultured in a cancer cell culture medium (RPMI1640 medium including 10% FBS and 1% penicillin/streptomycin) at 37° C. with 5% CO2 was treated with 0 mM, 0.5 mM, 1.0 mM, 2.5 mM, 5.0 mM, or 10 mM calcium lactate for 12 hours. Then, protein expression levels of PARP expressed in the melanoma cell lines were compared (FIG. 10).

[6] = system: PARP; assay: PARP expression in tumor tissue of xenograft animal model; assay type: in vivo, Balb/c mice; settings: HT-29 tumor tissue; 2.5 mM P.O. or 2.5 mM I.T.; vs control group
Experimental: as §1
Colorectal cancer tissues were extracted from the mice of the control group, the experimental group 1, or the experimental group 2 set up in Example 10-1, and expression levels of PARP and truncated PARP contributing to stabilization of cancer cells expressed therein were compared (FIG. 28).

[7] = Structure and binding energy analysis of metal lactate salts; assay type: physicochemical; settings: as compared to sodium lactate and potassium lactate (FIG. 1)
Source text: Calcium carbonate, sodium carbonate, or potassium carbonate was reacted with lactate so as to obtain metal lactate salt (calcium lactate, sodium lactate, or potassium lactate) solutions, respectively. Each of them was filtered, dried, and pulverized so as to obtain metal lactate salt (calcium lactate, sodium lactate, or potassium lactate) in the form of powder. Then, the structure and binding energy of the obtained metal lactate salts (calcium lactate, sodium lactate, or potassium lactate) were analyzed (FIG. 1).

[8] = system: human melanoma cell lines (SKMEL-02 and SKMEL-28); assay: Colony-forming ability of melanoma cell lines in solid medium; assay type: cell-based
Experimental: Firstly, human colorectal cancer cell lines (HCT-116, HT-29, and DLD-1) were inoculated into solid mediums including various concentrations (0 mM, 0.5 mM, 1.5 mM, or 2.5 mM) of calcium lactate and cultured for 10 days. After the completion of the culture, the cells were immobilized and stained with hematoxylin. Then, the number of cancer cells formed into colonies was counted (FIG. 23).
Then, using the same method as described above, human melanoma cell lines (SKMEL-02 and SKMEL-28) were inoculated into solid mediums including various concentrations (1 mM, 2.5 mM, or 5 mM) of calcium lactate and culture was performed, and the number of cancer cells formed into colonies were counted (FIGS. 24a and 24b).

## CC(O)C(=O)[O-].CC(O)C(=O)[O-].[Ca+2] (centres unmarked) [calcium lactate]
[1]
  colony-forming ability: decreased
[2]; 0, 1.5, 2.5 mM
  mRNA expression levels of β-catenin: no difference
[2]; with increasing concentration (0, 1.5, 2.5 mM)
  protein expression levels of β-catenin: decreased
[3]; MCF-7 and MDA-MB-231, with increasing concentration (0, 2.5, 5.0 mM)
  protein expression levels of PARP: decreased
[3]; MCF-7 cell line, 0, 2.5, 5.0 mM
  protein expression levels of the truncated PARP: increased
[4]; 2.5 mM injected around tumor
  tumor morphology: decreased in size with decreased angiogenesis
[4]; 25 mM subcutaneously injected
  tumor morphology: greatly decreased in size and angiogenesis is also reduced
[4]; 25 mM subcutaneously injected, 30 days (control about 2300)
  final tumor volume: about 80 mm^3
[5]
  protein expression levels of PARP: decreased
[6]
  PARP degrading activity: increased
[7]
  binding energy: relatively high binding energy
[8]; SKMEL-02, 5 mM (untreated 105 to 168)
  number of colonies: about 49 colonies
[8]; SKMEL-02 and SKMEL-28, with increasing concentration (1, 2.5, 5 mM)
  number of colonies: decreased
[8]; SKMEL-28, 5 mM
  number of colonies: colony was not formed
